Experiments:
[1] = in vivo; parameters: species or system SD rats; settings: rat; for AUC(0-inf) / AUC(0-t): SD
Experimental: In this experiment, a total of 24 rats (12 of each sex) were provided by Beijing Vitong Lever Experimental Animal Technology Co., Ltd. Each animal was identified using a tail mark and had its health status confirmed by Suzhou WuXi AppTec’s veterinary team before use. The animal room was monitored for temperature and humidity, with data recorded daily to ensure that the relative humidity was maintained at 40%–70% and the temperature was between 20–26°C. The lighting adopted a 12-hour alternating light and dark mode. Regular growth feed was provided daily, and animals had ready access to water. […] Post-administration, the condition of the animals was observed and documented before and after each blood collection point. The ensemble of 24 SD rats was divided into four groups, with three specimens of each gender in each group. Animals in group 1 received a single intravenous bolus of 0.2 mg/kg BGM0504, and groups 2, 3, and 4 received a single subcutaneous injection of 0.3, 1.5, and 7.5 mg/kg BGM0504 in 20 mM citrate buffered solution (pH=7.0±0.2), respectively. Blood samples were collected for pharmacokinetic analysis at specific time points (0.5, 1, 2, 4, 8, 12, 24, 48, 72, 96, and 120 hours) before and after dosing. At the same time, blood glucose levels were measured before and at 1, 4, 8, 12, and 24 hours after dosing. The collected blood samples were transferred to labeled commercial sample tubes containing K2-EDTA, centrifuged, and plasma was retrieved; some were used for analysis, and the other part was reserved as a backup. Plasma was transferred to pre-cooled centrifuge tubes, snap-frozen in dry ice, and stored in an ultra-low temperature freezer at -60°C or lower until transported to the Drug Evaluation Department of WuXi AppTec Shanghai Drug Development Co., Ltd. for analysis.

[2] = in vivo; parameters: species or system cynomolgus monkeys; settings: cynomolgus monkey
Experimental: In this trial, 24 cynomolgus monkeys (12 of each sex) were provided by Hainan Jingang Biotechnology Co., Ltd. Each animal was identified using a unique code on the chest and cage box, and its health status was confirmed by the veterinary team of WuXi AppTec Suzhou Drug Development Co., Ltd. before use. Temperature and humidity were monitored in the animal room, with data recorded daily to ensure that the relative humidity was maintained at 40%–70% and the temperature stayed between 18–26°C. The ventilation was set to 10–20 exchanges per hour, and a 12-hour alternating light-dark cycle was adopted. Regular growth feed was provided daily, and the animals had constant access to water. Additionally, the test animals were provided with fruit daily to meet their nutritional needs. The 24 cynomolgus monkeys were randomly divided into four groups, with three monkeys of each sex per group. Animals in group 1 received a single intravenous bolus of 0.1 mg/kg BGM0504, while groups 2, 3, and 4 received a single subcutaneous injection of 0.2, 1, and 5 mg/kg BGM0504 in 20 mM citrate buffer solution (pH=7.0±0.2), respectively. Blood samples for pharmacokinetic (PK) analysis were collected at specific time points (0.5, 1, 4, 6, 8, 12, 24, 48, 72, 96, 120, 168, 240, and 312 hours) before and after dosing. At the same time, blood glucose levels were measured at 0.5, 4, 24, 48, and 72 hours after dosing. The collected blood samples were transferred to labeled commercial tubes containing K2-EDTA (0.85–1.15 mg), gently inverted several times to ensure mixing, and immediately placed on wet ice. Within 60 minutes of blood collection, the samples were centrifuged for 10 minutes at 3200×g at 2°–8°C. Plasma was divided into two aliquots (one for analysis and one for later use), transferred to labeled polypropylene tubes, immediately snap-frozen vertically in dry ice, and stored in an ultra-low temperature freezer at -60°C or lower until transported to the Drug Evaluation Department of WuXi AppTec Shanghai Drug Development Co., Ltd. for LC-MS/MS analysis.

[3] = both sexes, Sprague-Dawley, iv, 0.2 mg/kg
[4] = both sexes, Sprague-Dawley, sc, 0.3 mg/kg
[5] = both sexes, Sprague-Dawley, sc, 1.5 mg/kg
[6] = both sexes, Sprague-Dawley, sc, 7.5 mg/kg

Q: With `CC[C@H](C)[C@H](NC(=O)[C@H](CC(C)C)NC(=O)[C@H](Cc1c[nH]c2ccccc12)NC(=O)[C@H](CCC(N)=O)NC(=O)[C@@H](NC(=O)[C@H](Cc1ccccc1)NC(=O)[C@H](C)NC(=O)[C@H](CCCCN)NC(=O)[C@H](CCC(N)=O)NC(=O)[C@H](C)NC(=O)[C@@H](NC(=O)[C@H](CCCCN)NC(=O)[C@H](CC(=O)O)NC(=O)[C@H](CC(C)C)NC(=O)C(C)(C)NC(=O)[C@@H](NC(=O)[C@H](CO)NC(=O)[C@H](Cc1ccc(O)cc1)NC(=O)[C@H](CC(=O)O)NC(=O)[C@H](CO)NC(=O)[C@@H](NC(=O)[C@H](Cc1ccccc1)NC(=O)[C@@H](NC(=O)CNC(=O)[C@H](CCC(=O)O)NC(=O)C(C)(C)NC(=O)[C@@H](N)Cc1ccc(O)cc1)[C@@H](C)O)[C@@H](C)O)[C@@H](C)CC)[C@@H](C)CC)C(C)C)C(=O)N[C@@H](C)C(=O)NCC(=O)NCC(=O)N1CCC[C@H]1C(=O)N[C@@H](CO)C(=O)N[C@@H](CO)C(=O)NCC(=O)N[C@@H](C)C(=O)N1CCC[C@H]1C(=O)N1CCC[C@H]1C(=O)N1CCC[C@H]1C(=O)N[C@@H](CO)C(=O)N[C@@H](CCCCNC(=O)COCCOCCOCCNC(=O)COCCOCCOCCNC(=O)CC[C@H](NC(=O)CCCCCCCCCCCCCCCCCCC(=O)O)C(=O)O)C(N)=O` [BGM0504] as the compound, how does the AUC(0-inf) ([1]; both sexes, iv, 0.2 mg/kg) read?
A: 50 µg·h/mL

Q: And the AUC(0-inf) ([1]; both sexes, sc, 0.3 mg/kg)?
A: 33.4 µg·h/mL

Q: What about the AUC(0-t) ([1]; both sexes, sc, 0.3 mg/kg) of the same compound?
A: 33.2 µg·h/mL

Q: What about the AUC(0-inf) ([1]; both sexes, sc, 1.5 mg/kg) of the same compound?
A: 154 µg·h/mL

Q: What about the AUC(0-t) ([1]; both sexes, sc, 1.5 mg/kg) of the same compound?
A: 153 µg·h/mL

Q: What about the AUC(0-inf) ([1]; both sexes, sc, 7.5 mg/kg) of the same compound?
A: 643 µg·h/mL

Q: What about the AUC(0-t) ([1]; both sexes, sc, 7.5 mg/kg) of the same compound?
A: 637 µg·h/mL

Q: And the C0 [1, 3]?
A: 4650 ± 411 ng/mL

Q: What about the Vd [1, 3] of the same compound?
A: 0.0648 ± 0.0058 L/kg

Q: What about the clearance [1, 3] of the same compound?
A: 4.08 ± 0.618 mL/h/kg

Q: What about the half-life [1, 3] of the same compound?
A: 13.6 ± 2.3 h

Q: What about the Cmax [1, 4] of the same compound?
A: 814 ± 111 ng/mL

Q: And the Tmax [1, 4]?
A: 24 h

Q: What about the bioavailability [1, 4] of the same compound?
A: 44.5%

Q: And the half-life [1, 4]?
A: 14.5 ± 1.4 h

Q: And the Cmax [1, 5]?
A: 3830 ± 705 ng/mL

Q: And the Tmax [1, 5]?
A: 24 h

Q: What about the bioavailability [1, 5] of the same compound?
A: 41.1%

Q: What about the half-life [1, 5] of the same compound?
A: 13.4 ± 1.5 h

Q: And the Cmax [1, 6]?
A: 15100 ng/mL

Q: And the Tmax [1, 6]?
A: 20 ± 6.2 h

Q: And the bioavailability [1, 6]?
A: 34.3%

Q: What about the half-life [1, 6] of the same compound?
A: 14.7 ± 2.4 h

Q: And the AUC0-24 ([1]; iv, 0.2 mg/kg)?
A: 38.8 µg·h/mL

Q: And the AUC0-last ([1]; iv, 0.2 mg/kg)?
A: 49.8 µg·h/mL

Q: What about the “AUC0–last (as headed in Table 1)” value ([1]; iv, 0.2 mg/kg) of the same compound?
A: 38,800 ± 5150 ng h/mL

Q: And the “AUC0–∞ (as headed in Table 1)” value ([1]; iv, 0.2 mg/kg)?
A: 49,800 ± 7470 ng h/mL

Q: What about the AUC0-24 ([1]; sc, 0.3 mg/kg) of the same compound?
A: 14.1 µg·h/mL

Q: And the “AUC0–last (as headed in Table 1)” value ([1]; sc, 0.3 mg/kg)?
A: 14,100 ± 2440 ng h/mL

Q: And the “AUC0–∞ (as headed in Table 1)” value ([1]; sc, 0.3 mg/kg)?
A: 33,200 ± 6190 ng h/mL

Q: And the AUC0-24 ([1]; sc, 1.5 mg/kg)?
A: 63.9 µg·h/mL

Q: What about the “AUC0–last (as headed in Table 1)” value ([1]; sc, 1.5 mg/kg) of the same compound?
A: 63,900 ± 11,400 ng h/mL

Q: And the “AUC0–∞ (as headed in Table 1)” value ([1]; sc, 1.5 mg/kg)?
A: 153,000 ± 27,700 ng h/mL

Q: And the AUC0-24 ([1]; sc, 7.5 mg/kg)?
A: 269 µg·h/mL

Q: And the “AUC0–last (as headed in Table 1)” value ([1]; sc, 7.5 mg/kg)?
A: 269,000 ± 43,000 ng h/mL

Q: What about the “AUC0–∞ (as headed in Table 1)” value ([1]; sc, 7.5 mg/kg) of the same compound?
A: 637,000 ± 88,700 ng h/mL

Q: And the AUC(0-inf) ([2]; both sexes, iv, 0.1 mg/kg)?
A: 81.1 µg·h/mL

Q: And the AUC(0-t) ([2]; both sexes, iv, 0.1 mg/kg)?
A: 80.4 µg·h/mL

Q: What about the C0 ([2]; both sexes, iv, 0.1 mg/kg) of the same compound?
A: 2860 ± 261 ng/mL

Q: What about the Vd ([2]; both sexes, iv, 0.1 mg/kg) of the same compound?
A: 0.0608 ± 0.005 L/kg

Q: And the clearance ([2]; both sexes, iv, 0.1 mg/kg)?
A: 1.24 ± 0.132 mL/h/kg

Q: And the half-life ([2]; both sexes, iv, 0.1 mg/kg)?
A: 37.9 ± 2.5 h

Q: What about the AUC(0-inf) ([2]; both sexes, sc, 0.2 mg/kg) of the same compound?
A: 113 µg·h/mL

Q: And the AUC(0-t) ([2]; both sexes, sc, 0.2 mg/kg)?
A: 113 µg·h/mL

Q: What about the Cmax ([2]; both sexes, sc, 0.2 mg/kg) of the same compound?
A: 1440 ± 109 ng/mL

Q: What about the Tmax ([2]; both sexes, sc, 0.2 mg/kg) of the same compound?
A: 16 ± 6.2 h

Q: And the bioavailability ([2]; both sexes, sc, 0.2 mg/kg)?
A: 69.7%

Q: What about the half-life ([2]; both sexes, sc, 0.2 mg/kg) of the same compound?
A: 38.7 ± 1.8 h

Q: And the AUC(0-inf) ([2]; both sexes, sc, 1 mg/kg)?
A: 491 µg·h/mL

Q: And the AUC(0-t) ([2]; both sexes, sc, 1 mg/kg)?
A: 488 µg·h/mL

Q: What about the Cmax ([2]; both sexes, sc, 1 mg/kg) of the same compound?
A: 5970 ± 1090 ng/mL

Q: And the Tmax ([2]; both sexes, sc, 1 mg/kg)?
A: 22 ± 14 h

Q: And the bioavailability ([2]; both sexes, sc, 1 mg/kg)?
A: 60.5%

Q: What about the half-life ([2]; both sexes, sc, 1 mg/kg) of the same compound?
A: 41.7 ± 2.9 h

Q: What about the AUC(0-inf) ([2]; both sexes, sc, 5 mg/kg) of the same compound?
A: 2740 µg·h/mL

Q: And the AUC(0-t) ([2]; both sexes, sc, 5 mg/kg)?
A: 2720 µg·h/mL

Q: What about the Cmax ([2]; both sexes, sc, 5 mg/kg) of the same compound?
A: 33500 ng/mL

Q: And the Tmax ([2]; both sexes, sc, 5 mg/kg)?
A: 20 ± 6.2 h

Q: What about the bioavailability ([2]; both sexes, sc, 5 mg/kg) of the same compound?
A: 67.6%

Q: What about the half-life ([2]; both sexes, sc, 5 mg/kg) of the same compound?
A: 43.4 ± 5.9 h

Q: And the Tmax [2]?
A: 16 to 22 h

Q: And the AUC0-24 ([2]; iv, 0.1 mg/kg)?
A: 34.6 µg·h/mL

Q: And the “AUC0–last (as headed in Table 1)” value ([2]; iv, 0.1 mg/kg)?
A: 34,600 ± 2470 ng h/mL

Q: And the “AUC0–∞ (as headed in Table 1)” value ([2]; iv, 0.1 mg/kg)?
A: 80,400 ± 7880 ng h/mL

Q: And the AUC0-24 ([2]; sc, 0.2 mg/kg)?
A: 26.1 µg·h/mL

Q: And the “AUC0–last (as headed in Table 1)” value ([2]; sc, 0.2 mg/kg)?
A: 26,100 ± 1740 ng h/mL

Q: And the “AUC0–∞ (as headed in Table 1)” value ([2]; sc, 0.2 mg/kg)?
A: 113,000 ± 7940 ng h/mL

Q: And the AUC0-24 ([2]; sc, 1 mg/kg)?
A: 109 µg·h/mL

Q: And the “AUC0–last (as headed in Table 1)” value ([2]; sc, 1 mg/kg)?
A: 109,000 ± 21,900 ng h/mL

Q: What about the “AUC0–∞ (as headed in Table 1)” value ([2]; sc, 1 mg/kg) of the same compound?
A: 488,000 ± 51,200 ng h/mL

Q: What about the AUC0-24 ([2]; sc, 5 mg/kg) of the same compound?
A: 603 µg·h/mL

Q: What about the “AUC0–last (as headed in Table 1)” value ([2]; sc, 5 mg/kg) of the same compound?
A: 603,000 ± 94,200 ng h/mL

Q: And the “AUC0–∞ (as headed in Table 1)” value ([2]; sc, 5 mg/kg)?
A: 2,720,000 ± 246,000 ng h/mL

— publication PMC11271627, “Molecular dynamics-guided optimization of BGM0504 enhances dual-target agonism for combating diabetes and obesity” (Scientific Reports, 2024)
